Results taken from ChEMBL document CHEMBL3853263, “Effect of intercalator and Lewis acid-base branched peptide complex formation: boosting affinity towards HIV-1 RRE RNA” (Medchemcomm, 2016).
Numbered stars: 1 amine (or outer) side, 2 acyl side, 3 side chain; on linkers, the order of the positions; unused ones are H or OH. Peptide text beside a SMILES is read from it. Suc = O=C(CCC(=O)[*:2])[*:1]

Tests used:
[1] = Binding affinity to HIV1 HXB3 RRE66 RNA; parameters: species or system Human immunodeficiency virus 1
[2] = Binding affinity to HIV1 wild type [32P]-labeled RRE-2B RNA after 30 mins by electrophoretic mobility shift assay; parameters: species or system Human immunodeficiency virus 1

Structure (SMILES)	Kd [1]	Kd [2]
NCC1O[C@H](O[C@H]2[C@@H](O)[C@H](O[C@@H]3[C@@H](O)[C@H](N)C[C@H](N)[C@H]3O[C@H]3O[C@H](CN)[C@@H](O)[C@H](O)[C@H]3N)O[C@@H]2CNc2c3ccccc3nc3ccccc23)[C@H](N)[C@@H](O)[C@@H]1O (some centres not stated)	2.4 nM	
C[C@H](NC(=O)[C@H](C)NC(=O)[C@H](C)NC(=O)[C@H](CCCNC(=N)N)NC(=O)[C@H](CCC(N)=O)NC(=O)[C@H](CCCNC(=N)N)NC(=O)[C@H](CCC(=O)O)NC(=O)[C@H](CCCNC(=N)N)NC(=O)[C@H](Cc1c[nH]c2ccccc12)NC(=O)[C@H](CCCNC(=N)N)NC(=O)[C@H](CCCNC(=N)N)NC(=O)[C@H](CCCNC(=N)N)NC(=O)[C@H](CCCNC(=N)N)NC(=O)[C@H](CC(N)=O)NC(=O)[C@H](CCCNC(=N)N)NC(=O)[C@H](CCCNC(=N)N)NC(=O)[C@H](C)NC(=O)[C@H](CCC(N)=O)NC(=O)[C@H](CCCNC(=N)N)NC(=O)[C@@H](NC(=O)CCC(=O)O)[C@@H](C)O)C(=O)N[C@@H](C)C(=O)N[C@@H](CCCNC(=N)N)C(=O)O (Suc-TRQARRNRRRRWRERQRAAAAR-OH)		100 nM
